# According to ChEMBL document CHEMBL6153028, “Understanding the synergistic sensitization of natural products and antibiotics: An effective strategy to combat MRSA” (2025):
# Columns and labels:
# Type in all cases: functional
# Staphylococcus aureus [1] = assay: Synergistic antimicrobial activity against methicillin-resistant Staphylococcus aureus assessed as fractional inhibitory concentration index in presence of ampicillin incubated for 24 hrs by checkerboard assay
# Staphylococcus aureus [2] = assay: Synergistic antimicrobial activity against methicillin-resistant Staphylococcus aureus assessed as fractional inhibitory concentration index in presence of amoxicillin incubated for 24 hrs by checkerboard assay
# Staphylococcus aureus [3] = assay: Synergistic antimicrobial activity against methicillin-resistant Staphylococcus aureus assessed as fractional inhibitory concentration index in presence of Ceftriaxone incubated for 24 hrs by checkerboard assay
# Staphylococcus aureus [4] = assay: Synergistic antimicrobial activity against methicillin-resistant Staphylococcus aureus assessed as fractional inhibitory concentration index in presence of cefixime incubated for 24 hrs by checkerboard assay
# Staphylococcus aureus [5] = assay: Synergistic antimicrobial activity against methicillin-resistant Staphylococcus aureus assessed as fractional inhibitory concentration index in presence of penicillin G incubated for 24 hrs by checkerboard assay
# Staphylococcus aureus [6] = assay: Synergistic antibacterial activity against methicillin resistant Staphylococcus aureus assessed as fractional inhibitory concentration index in presence of oxacillin incubated for 24 hrs by checkerboard assay
# Staphylococcus aureus [7] = assay: Synergistic antibacterial activity against methicillin resistant Staphylococcus aureus assessed as fractional inhibitory concentration index in presence of gentamicin
# Staphylococcus aureus [8] = assay: Synergistic antibacterial activity against methicillin resistant Staphylococcus aureus assessed as fractional inhibitory concentration index in presence of ciprofloxacin
# Staphylococcus aureus [9] = assay: Synergistic antibacterial activity against methicillin resistant Staphylococcus aureus assessed as fractional inhibitory concentration index in presence of norfloxacin; conditions: time 24 hrs
# Staphylococcus aureus [10] = assay: Synergistic antimicrobial activity against methicillin-resistant Staphylococcus aureus assessed as fractional inhibitory concentration index in presence of fosfomycin by checkerboard assay
# Staphylococcus aureus [11] = assay: Synergistic antimicrobial activity against methicillin-resistant Staphylococcus aureus assessed as fractional inhibitory concentration index in presence of chloramphenicol by checkerboard assay
# Staphylococcus aureus [12] = assay: Synergistic antimicrobial activity against methicillin-resistant Staphylococcus aureus assessed as fractional inhibitory concentration index in presence of gentamicin by checkerboard assay
# Staphylococcus aureus [13] = assay: Synergistic antimicrobial activity against methicillin-resistant Staphylococcus aureus assessed as fractional inhibitory concentration index in presence of minocycline by checkerboard assay
# Staphylococcus aureus [14] = assay: Synergistic antibacterial activity against methicillin resistant Staphylococcus aureus clinical isolate 003 assessed as fractional inhibitory concentration in presence of norfloxacin
# Staphylococcus aureus [15] = assay: Synergistic antibacterial activity against methicillin resistant Staphylococcus aureus assessed as fractional inhibitory concentration index in presence of erythromycin incubated for 24 hrs by checkerboard assay
# Staphylococcus aureus [16] = assay: Antibacterial activity against methicillin-resistant Staphylococcus aureus assessed as reduction in microbial growth by CLSI based broth microdilution method
# Staphylococcus aureus [17] = assay: Synergistic antimicrobial activity against methicillin resistant Staphylococcus aureus assessed as fractional inhibitory concentration index incubated for 24 hrs in presence of linezolid by checkerboard assay
# Staphylococcus aureus [18] = assay: Synergistic antimicrobial activity against methicillin resistant Staphylococcus aureus assessed as fractional inhibitory concentration index incubated for 24 hrs in presence of daptomycin by checkerboard assay
# Staphylococcus aureus [19] = assay: Synergistic antimicrobial activity against methicillin resistant Staphylococcus aureus assessed as fractional inhibitory concentration index incubated for 24 hrs in presence of Oxacillin by checkerboard assay
# Staphylococcus aureus [20] = assay: Synergistic antimicrobial activity against methicillin resistant Staphylococcus aureus assessed as fractional inhibitory concentration index incubated for 24 hrs in presence of oxytetracycline by checkerboard assay
# Staphylococcus aureus [21] = assay: Synergistic antibacterial activity against methicillin resistant Staphylococcus aureus assessed as fractional inhibitory concentration index in presence of levofloxacin
# Staphylococcus aureus [22] = assay: Synergistic antibacterial activity against methicillin resistant Staphylococcus aureus assessed as fractional inhibitory concentration index in presence of ceftazidime
# Staphylococcus aureus [23] = assay: Synergistic antimicrobial activity against methicillin-resistant Staphylococcus aureus CCARM 3089 assessed as fractional inhibitory concentration index in presence of Chloramphenicol incubated for 24 hrs by checkerboard assay
# Staphylococcus aureus [24] = assay: Synergistic antimicrobial activity against methicillin-resistant Staphylococcus aureus CCARM 3089 assessed as fractional inhibitory concentration index in presence of oxacillin incubated for 24 hrs by checkerboard assay
# Staphylococcus aureus [25] = assay: Synergistic antimicrobial activity against methicillin resistant Staphylococcus aureus assessed as fractional inhibitory concentration index incubated for 24 hrs in presence of Norfloxacin by checkerboard assay
# Staphylococcus aureus [26] = assay: Synergistic antimicrobial activity against methicillin-resistant Staphylococcus aureus assessed as fractional inhibitory concentration index incubated for 24 hrs in presence of ampicillin by checkerboard assay
# Staphylococcus aureus [27] = assay: Synergistic antimicrobial activity against methicillin resistant Staphylococcus aureus assessed as fractional inhibitory concentration index incubated for 24 hrs in presence of rifampicin by checkerboard assay
# Staphylococcus aureus [28] = assay: Synergistic antibacterial activity against methicillin resistant Staphylococcus aureus assessed as fractional inhibitory concentration index in presence of ampicillin
# Staphylococcus aureus [29] = assay: Synergistic antibacterial activity against methicillin resistant Staphylococcus aureus assessed as fractional inhibitory concentration index in presence of ceftriaxone
# Staphylococcus aureus [30] = assay: Synergistic antimicrobial activity against methicillin-resistant Staphylococcus aureus assessed as fractional inhibitory concentration index in presence of teicoplanin by checkerboard assay
# Staphylococcus aureus [31] = assay: Synergistic antibacterial activity against methicillin resistant Staphylococcus aureus assessed as fractional inhibitory concentration index in presence of tetracycline
# Staphylococcus aureus [32] = assay: Synergistic antibacterial activity against […] Staphylococcus aureus ATCC 29213 assessed as fractional inhibitory concentration index incubated for 24 hrs in presence of ciprofloxacin by checkerboard assay
# Staphylococcus aureus [33] = assay: Synergistic antibacterial activity against […] Staphylococcus aureus ATCC 29213 assessed as fractional inhibitory concentration index incubated for 24 hrs in presence of amoxicillin by checkerboard assay
# Staphylococcus aureus [34] = assay: Synergistic antibacterial activity against […] Staphylococcus aureus ATCC 29213 assessed as fractional inhibitory concentration index incubated for 24 hrs in presence of pencillin by checkerboard assay
structure (smiles),measurement,setting,value
O=c1cc(-c2ccccc2)c2cc(O)c(O)cc2o1,fractional inhibitory concentration index (FICI),Staphylococcus aureus [1],<0.5
same,fractional inhibitory concentration index (FICI),Staphylococcus aureus [2],<0.5
same,fractional inhibitory concentration index (FICI),Staphylococcus aureus [3],<0.5
same,fractional inhibitory concentration index (FICI),Staphylococcus aureus [4],<0.5
same,fractional inhibitory concentration index (FICI),Staphylococcus aureus [5],<0.5
CC(C)=CCc1c(O)cc(O)c2c1O[C@H](c1ccc(O)cc1)CC2=O,fractional inhibitory concentration index (FICI),Staphylococcus aureus [6],0.31
same,fractional inhibitory concentration index (FICI),Staphylococcus aureus [7],0.25
same,fractional inhibitory concentration index (FICI),Staphylococcus aureus [8],0.5
same,fractional inhibitory concentration index (FICI),Staphylococcus aureus [9],0.5
COc1cc(OC/C=C(\C)CCC=C(C)C)c2ccc(=O)oc2c1,fractional inhibitory concentration index (FICI),Staphylococcus aureus [10],<0.5
same,fractional inhibitory concentration index (FICI),Staphylococcus aureus [11],<0.5
same,fractional inhibitory concentration index (FICI),Staphylococcus aureus [12],<0.5
same,fractional inhibitory concentration index (FICI),Staphylococcus aureus [13],<0.5
CC(C)=CCC/C(C)=C\C=O,fractional inhibitory concentration index (FICI),Staphylococcus aureus [14],<0.5
same,fractional inhibitory concentration index (FICI),Staphylococcus aureus [15],<0.5
C=CC(C)(C)c1cc(-c2coc3cc(O)cc(O)c3c2=O)c(CC=C(C)C)c(O)c1O,MIC,Staphylococcus aureus [16],12.5 µg/mL
CC[C@@H]1CC[C@@]2(C)C(C)=CCC[C@@H]2[C@@]1(C)CCC1=CC(=O)O[C@@H]1O,fractional inhibitory concentration index (FICI),Staphylococcus aureus [17],0.34
same,fractional inhibitory concentration index (FICI),Staphylococcus aureus [18],0.32
same,fractional inhibitory concentration index (FICI),Staphylococcus aureus [19],0.223
same,fractional inhibitory concentration index (FICI),Staphylococcus aureus [20],0.321
C/C(=C\C(O)=C\O)[C@@H]1Oc2cc(O[C@@H]3O[C@@H](C)[C@H](O)[C@@H](O)[C@H]3O)cc(O)c2C(=O)[C@H]1O,fractional inhibitory concentration index (FICI),Staphylococcus aureus [21],0.25
same,fractional inhibitory concentration index (FICI),Staphylococcus aureus [22],0.187
COc1c(C)c(O)c(CC=C(C)C)c(O)c1Cc1c(O)c(C(C)=O)c(O)c(CC=C(C)C)c1OC,fractional inhibitory concentration index (FICI),Staphylococcus aureus [23],0.393
same,fractional inhibitory concentration index (FICI),Staphylococcus aureus [24],0.008
Oc1ccc([C@H]2Oc3cc(O)cc4c3[C@@H]2c2cc(O)cc3c2[C@H](c2cc(O)cc5c2[C@H]4[C@@H](c2ccc(O)cc2)O5)[C@@H](c2ccc(O)cc2)O3)cc1,fractional inhibitory concentration index (FICI),Staphylococcus aureus [25],<0.5
same,fractional inhibitory concentration index (FICI),Staphylococcus aureus [26],<0.5
same,fractional inhibitory concentration index (FICI),Staphylococcus aureus [27],<0.5
O=c1cc(-c2ccc(O)cc2)oc2cc(O)cc(O)c12 [APIGENIN],fractional inhibitory concentration index (FICI),Staphylococcus aureus [28],0.18
same,fractional inhibitory concentration index (FICI),Staphylococcus aureus [29],0.18
COc1cc(OC)c2ccc(=O)oc2c1OCC=C(C)C [ARTANIN],fractional inhibitory concentration index (FICI),Staphylococcus aureus [30],<0.5
COc1cc2oc(-c3ccc(O)cc3O)c(CC=C(C)C)c(=O)c2c(O)c1/C=C/C(C)C [ARTOCARPIN],fractional inhibitory concentration index (FICI),Staphylococcus aureus [31],0.24
same,fractional inhibitory concentration index (FICI),Staphylococcus aureus [28],0.37
same,fractional inhibitory concentration index (FICI),Staphylococcus aureus [9],0.15
O=c1cc(-c2ccccc2)oc2cc(O)c(O)c(O)c12 [BAICALEIN],fractional inhibitory concentration index (FICI),Staphylococcus aureus [32],<0.5
same,fractional inhibitory concentration index (FICI),Staphylococcus aureus [33],0.14
same,fractional inhibitory concentration index (FICI),Staphylococcus aureus [34],0.14
